# Source: patent publication US9549914B2, “Treatment of human cytomegalovirus by modulating Wnt” (priority 2014, dated 2017)
# Where two headings read alike, the source gives them in different places.
# Key:
# [1] = test system: pp28-luciferase HCMV Towne strain; assay: microbe, parasite or virus in culture; type: cell-based, Human Cytomegalovirus (HCMV); details: for SI (selectivity index): HCMV in HFFs, mean ± SD; for EC50: Human betaherpesvirus 5, read-out: EC50 (μM), anti-HCMV activity
# Experimental: The pp28-luciferase HCMV Towne strain was constructed as previously described (14). This virus expresses luciferase under the control of the late CMV gene promoter, pp28. Luciferase expression is strongly activated 48-72 hours post infection (hpi). […] A GCV-resistant HCMV strain was obtained from a patient with CMV disease. […] Human herpes virus strains were: luciferase HSV1-KOS/Dlux/oriS (15) and clinical isolates of HSV1 and HSV2. All clinical isolates were provided by the clinical virology laboratory with no identifiers that can link to a specific subject. The Johns Hopkins Office of Human Subject Research Institutional Review Board determined that this research qualified for an exemption.
# Human Foreskin Fibroblasts (HFFs) passage 12-16 (ATCC, CRL-2088™) were grown in Dulbecco's Modified Eagle Medium (DMEM) containing 10% fetal bovine serum (FBS) (Gibco, Carlsbad, Calif.) in a 5% CO2 incubator at 37° C. and used for infection with HCMV or HSV at multiplicity of infection of 1 PFU/cell (MOI=1) unless otherwise specified. Following 90 minute adsorption (60 min for HSV), media was removed and cells were washed with PBS. DMEM with 4% FBS containing compounds was added to each well. For HCMV, infected, treated HFFs were collected at 72 hpi and lysates were assayed for luciferase activity using a luciferase assay kit (Promega, Madison, Wis.) on GloMax®-Multi+ Detection System (Promega) according to manufacturer's instructions.
# HSV1 clinical isolates = assay: HSV1 plaque assay in Vero cells; type: cell-based; details: read-out: HSV1 EC50 (μM) Plaque Number (Vero)
# in vitro [2] = details: human
# Experimental: (§3) Cell viability was determined using a colorimetric MTT cell proliferation assay following manufacturer's instructions (Sigma-Aldrich, St. Louis, Mo.). HFFs were treated with varying concentrations of monensin, nigericin, and salinomycin and incubated at 37° C. for 3 days. After the addition of 20 μl/well of MTT (3-(4,5-Dimethyl-2-thiazolyl)-2,5-diphenyl-2H-tetrazolim bromide) (5 mg/ml in PBS), and shaking at 150 rpm for 5 minutes the plates were incubated at 37° C. for 3 hours. Conversion of yellow solution into dark blue formazan by mitochondrial dehydrogenases of living cells was quantified by measuring absorbance at 570 nm. Viable cells in culture medium containing vehicle alone (0.1% DMSO) were referred to as 100% cell viability. For each cell type used for virus infection and drug treatment, the MTT assay was performed at the same time points as the antiviral assay.
# [3] = test system: luciferase HSV1-KOS/Dlux/oriS; assay: HSV1-KOS/Dlux/oriS yield reduction assay in HFFs; type: cell-based; details: Human alphaherpesvirus 1, 16 h, read-out: HSV1 EC50 (μM) Yield Reduction (HFFs)
# HCMV [4] = assay: Reversibility of HCMV inhibition, real-time PCR in supernatants; type: cell-based, Human Cytomegalovirus (HCMV); details: treated 1, 2 or 3 days, then fresh media; HCMV DNA in supernatants at day 6 post infection
# Source text: FIG. 4: Effects of monensin, nigericin, salinomycin and GCV on replication characteristics. A. Reversibility of HCMV replication: Compounds were present in HCMV-infected HFFs at the indicated intervals in days. Virus DNA was quantified by real-time PCR in supernatants at 6 days post infection. Data represent mean values (±SD) of triplicate determinations from two independent experiments. B. Inhibition of DNA replication, pp28 expression and virus DNA yield: DNA replication was quantified by real-time PCR in cells collected 48 hpi. Pp28-luciferase activity was measured in cell lysates collected at 72 hpi. Virus DNA yield was measured by real-time PCR in supernatants of infected cells collected at 96 hpi. The concentration of compounds was: 0.1 μM for monensin and nigericin, 1 μM for salinomycin and 10 μM for GCV. Data represent mean values (±SD) of triplicate determinations from two independent experiments.
# The quantitative CMV real-time PCR assay is based on detection of a 151 bp region from the highly conserved US17 gene (16). The limit of detection of the assay is 100 copies/mL (3.0 copies/reaction), and the measurable range is 2.4-8.0 log10 copies/mL. The PCR was performed using a total reaction volume of 50 μL, including TaqMan 2× Universal PCR Master Mix (Applied Biosystems, Foster City, Calif.), primers (300 nM final concentration), FAM-labeled probe (200 nM final concentration), dH2O, and template (10 μl). Amplification was performed on a 7500 Real-Time PCR System (Applied Biosystems, Foster City, Calif.). PCR conditions were: 50° C. for 2 min, 95° C. for 10 min, 40 cycles of 95° C. for 15 s and 60° C. for 60 s. Quantification standards were prepared by cloning the US17 amplicon in the pCR®2.1-TOPO® plasmid vector (Invitrogen, Carlsbad, Calif.). Serial 10-fold dilutions of plasmid from 7.0 to 1.0 log10 copies/reaction were included with each assay and used to establish a standard curve. The slope and R^2 of the standard curve were −3.3±0.1 and >0.990, respectively. Assay controls included quantified CMV AD 169 DNA (Advanced Biotechnologies Inc.) and quantified Towne CMV at 3.0 and 5.0 log10 copies/mL. Quantitative CMV data were expressed as viral DNA copies per milliliter. The real-time PCR was used for quantification of HCMV replication in cell lysates at 48 hpi, virus DNA yield in supernatants at 96 hpi and for a reversibility assay (14, 16).
# To test whether HCMV inhibition by monensin, nigericin and salinomycin was reversible, infected HFFs were treated for 1, 2, or 3 days followed by removal of the media containing the compounds, and adding fresh media until 6 days post infection. HCMV DNA was quantified in supernatants of infected cells at day 6 post infection by real-time PCR.
# HSV2 clinical isolates = assay: HSV2 plaque assay in Vero cells; type: cell-based; details: read-out: HSV2 EC50 (μM) Plaque Number (Vero)
# HCMV [5] = assay: HCMV yield reduction (infectious virus released into medium, plaques); type: cell-based, Human Cytomegalovirus (HCMV)
# [6] = test system: Wnt/β-catenin signaling proteins; assay: Western blot of Wnt/β-catenin signaling proteins in HSV1-infected HFFs; type: cell-based, Human; details: 48 hpi with HSV1-KOS (Dlux/OriS), concentrations resulting in full HCMV inhibition
# Experimental: FIG. 7: Effect of monensin, nigericin and salinomycin on expression of Wnt/β-catenin signaling proteins in non-infected and HSV1-infected HFFs. FIG. 7A: Expression of Wnt5a/b, Axin1, β-catenin, and actin (control) in non-infected (Mock), and HSV1-infected HFFs (MOI=0.1) treated with monensin (0.1 μM), nigericin (0.1 μM), salinomycin (1 μM) and GCV (10 μM) was determined after 48 h. Representative data from three independent experiments is shown. FIG. 7B: Expression of Wnt5a/b, Axin1, β-catenin, and actin (control) in non-infected (Mock), and HSV1-infected HFFs (MOI=0.1) treated with monensin (0.2 μM), nigericin (0.2 μM) and salinomycin (2 μM) and GCV (10 μM) was determined after 48 h. Representative data from three independent experiments is shown.
# (§1) Cell lysates were quantified for protein content using bicinchoninic acid (BCA) protein assay kit (Pierce Chemical, Rockford, Ill.). Equivalent amount of proteins were mixed with an equal volume of 2× sample buffer (125 mM Tris-HCL, pH 6.8, 4% SDS, 20% glycerol and 5% β-mercaptoethanol) and boiled at 100° C. for 10 min (except for Wnt and pWnt detection for which samples were not boiled). Denatured proteins were resolved in Tris-glycine polyacrylamide gels (10-12%) and transferred to polyvinylidine difluoride (PVDF) membranes (Bio-Rad Laboratories, Hercules, Calif.) by electroblotting. Membranes were incubated in blocking solution [5% non-fat dry milk and 0.1% Tween-20 in PBS (PBST)] for 1 hr, washed three times with PBST, and incubated with appropriately diluted primary antibodies at 4° C. overnight. Membranes were washed with PBST and incubated with horseradish peroxidase-conjugated secondary antibodies in PBST for 1 hr at room temperature. Following washing with PBST, protein bands were visualized by chemiluminescence using SuperSignal West Dura and Pico reagents (Pierce Chemical, Rockford, Ill.). The following antibodies were used for detection of CMV proteins: mouse anti-IE1 and IE2, (MAb810); mouse anti-beta-actin antibody (Millipore, Billerica, Mass.); mouse anti-UL44 (Santa Cruz biotechnology Santa Cruz, Calif.); mouse anti-pp65 (Vector laboratories, Burlingame, Calif.); horseradish peroxidase (HRP)-conjugated anti-rabbit IgG (Cell Signaling Technology, Beverly, Mass.); and HRP-conjugated anti-mouse IgG, (GE Healthcare, Waukesha, Wis.). The following antibodies were used for detection of proteins in the Wnt pathway: anti-Wnt5a/b, Wnt, phospho-Wnt, Dvl2, Dvl3 and axin1 (Cell Signaling), β-catenin (E-5) (Santa Cruz biotechnology).
# [7] = test system: GCV-resistant HCMV strain (UL97 mutation H520Q); assay: GCV-resistant HCMV strain, virus DNA yield by real-time PCR; type: cell-based, Human Cytomegalovirus (HCMV); details: Human betaherpesvirus 5, read-out: EC50 against GCV-resistant HCMV strain
# Experimental: HFFs cells were infected with a GCV-resistant HCMV and treated with monensin (0.01 μM-1 μM), nigericin (0.005 μM-0.5 μM), salinomycin (0.03 μM-10 μM) or GCV (1 μM-30 μM). Virus DNA yield was quantified by real-time PCR in supernatants of infected cells 96 hpi. Data represent mean values (±SD) of triplicate determinations from two independent experiments.
# The quantitative CMV real-time PCR assay is based on detection of a 151 bp region from the highly conserved US17 gene (16). The limit of detection of the assay is 100 copies/mL (3.0 copies/reaction), and the measurable range is 2.4-8.0 log10 copies/mL. […] Quantification standards were prepared by cloning the US17 amplicon in the pCR®2.1-TOPO® plasmid vector (Invitrogen, Carlsbad, Calif.). […] Assay controls included quantified CMV AD 169 DNA (Advanced Biotechnologies Inc.) and quantified Towne CMV at 3.0 and 5.0 log10 copies/mL. Quantitative CMV data were expressed as viral DNA copies per milliliter. The real-time PCR was used for quantification of HCMV replication in cell lysates at 48 hpi, virus DNA yield in supernatants at 96 hpi and for a reversibility assay (14, 16).
# in vitro [8] = details: human; remark: listed apart in the source
# Experimental: as §3
# in vitro [9] = details: human; remark: listed apart in the source
# Experimental: as §3
# [10] = test system: Wnt/β-catenin signaling proteins; assay: Western blot of Wnt-signaling proteins in non-infected and HCMV-infected HFFs; type: cell-based, Human; details: 100 nM
# Experimental: (§2) FIG. 5: Effect of Nigericin and GCV on expression of HCMV and Wnt/β-catenin signaling proteins. A. Expression of HCMV proteins in infected HFFs treated with nigericin (100 nM) and GCV (10 μM). Compounds were added after virus adsorption and cell lysates were collected for western blot at 24, 48 and 72 hpi. Control-no treatment. B. Expression of Wnt-signaling proteins was determined in non-infected (Mock), and HCMV-infected HFFs treated with nigericin (100 nM) and GCV (10 μM) at indicated time points. Representative data from three independent experiments are shown.
# as §1
# [11] = test system: HCMV proteins (IE1, IE2, UL44, pp65); assay: Western blot of HCMV proteins in infected HFFs; type: cell-based, Human Cytomegalovirus (HCMV)
# Experimental: as §2, §1
# [12] = Human alphaherpesvirus 1, 48 h, Vero cells, 200 PFU/well, plaques counted after 2 days
# [13] = Human alphaherpesvirus 2, 48 h, Vero cells, 200 PFU/well, plaques counted after 2 days
# [14] = infected HFFs treated at 0.1 μM
# [15] = non-infected and HCMV-infected HFFs, all time points (24, 48, 72 hpi)
Structure (SMILES),SI (selectivity index) [1],EC50 [1],CC50 at 3 days (in vitro [2]),EC50 [3],reversibility of HCMV inhibition (HCMV [4]),expression of Wnt 5a/b in HSV1-infected HFFs [6],expression of axin 1 in HSV1-infected HFFs [6],expression of β-catenin in HSV1-infected HFFs [6],EC50 (HSV1 clinical isolates; [12]),EC50 (HSV2 clinical isolates; [13]),"infectious virus released into the medium (yield reduction), plaques (HCMV [5]; [14])",also measured
"CC[C@@H](C(=O)[C@@H](C)[C@@H](O)[C@H](C)[C@@H]1O[C@@H]([C@@H](CC)C(=O)O)CC[C@@H]1C)[C@H]1O[C@]2(C=C[C@@H](O)[C@]3(CC[C@@](C)([C@H]4CC[C@](O)(CC)[C@H](C)O4)O3)O2)[C@H](C)C[C@@H]1C [Salinomycin, salinomycin]",143 ± 18,0.2 ± 0.01 µM,28400 ± 5900 nM,0.6 ± 0.1 µM,fully reversible,inhibition,did not reduce,did not reduce,,,,"EC50 (HSV1 clinical isolates; Human alphaherpesvirus 1, Vero, 48 h): 0.58 ± 0.07 µM; EC50 (HSV2 clinical isolates; Human alphaherpesvirus 2, Vero, 48 h): 0.07 ± 0.03 µM; infectious virus released into the medium (yield reduction), plaques (HCMV [5]; infected HFFs treated at 1 μM): complete absence of plaques"
"Nc1nc(O)c2ncn(COC(CO)CO)c2n1 [GCV, ganciclovir]",96 ± 14,2.7 ± 0.1 µM,247000 ± 33400 nM,,fully reversible,,,,,,,EC50 [7]: 7600 nM; CC50 (in vitro [8]): > 100000 nM; CC50 (in vitro [9]): > 100000 nM
CC[C@@]1([C@@H]2O[C@@H]([C@H]3O[C@@](O)(CO)[C@H](C)C[C@@H]3C)C[C@@H]2C)CC[C@H]([C@]2(C)CC[C@]3(C[C@H](O)[C@@H](C)[C@@H]([C@@H](C)[C@@H](OC)[C@H](C)C(=O)O)O3)O2)O1 [Monensin],138 ± 14,0.02 µM,3370 ± 520 nM,0.08 µM,weak irreversible inhibition,inhibition,did not reduce,did not reduce,1.6 ± 0.14 µM,0.34 ± 0.04 µM,complete absence of plaques,
"CO[C@@H]1C[C@@H](C[C@H]2CC[C@H](C)[C@H]([C@@H](C)C(=O)O)O2)O[C@]2(O[C@](C)([C@H]3CC[C@@](C)([C@@H]4O[C@@H]([C@H]5O[C@@](O)(CO)[C@H](C)C[C@@H]5C)C[C@@H]4C)O3)C[C@H]2C)[C@@H]1C [Nigericin, nigericin]",139 ± 23,0.02 µM,3350 ± 770 nM,0.08 µM,weak irreversible inhibition,inhibition,did not reduce,did not reduce,0.63 µM,0.16 ± 0.05 µM,complete absence of plaques,"β-catenin levels ([10]; effect increased from 24 to 48 and 72 hpi): significant decrease; expression of Wnt [10, 15]: decreased expression; expression of Wnt 5a/b [10, 15]: decreased expression; expression of axin 1 [10, 15]: decreased expression; expression of pWnt [10, 15]: decreased expression; expression of the late HCMV gene pp65 ([11]; 100 nM): significant inhibition; IE1 expression ([11]; 100 nM, 24, 48 and 72 hpi): no obvious inhibition; IE2 expression ([11]; 100 nM, 24, 48 and 72 hpi): major inhibition; UL44 expression ([11]; 100 nM, 24, 48 and 72 hpi): major inhibition"
